According to patent US20210040118A1, “IMMUNOMODULATORS, COMPOSITIONS AND METHODS THEREOF” (BETTA PHARMACEUTICALS CO., LTD, priority 2018, published 2021):
pIC50: −log10 of the molar value.

target: T1, PD-1/PD-L1 (Homo sapiens, UniProt Q9NZQ7); test: PD-1/PD-L1 homogenous time-resolved fluorescence (HTRF) binding assay; details: recombinant human PD-L1 (19-238) His-tag / human PD-1 (25-167) Fc tag, class symbols
T1 construct: Recombinant human PD-L1 protein (19-238) with a His-tag at the C-terminus; purchased AcroBiosystems PD1-H5229 (PD-L1); PD1-H5257 (PD-1)
Procedure, shortened: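 Inhibitors were preincubated 40 min at 25°C with 10 nM His-tagged human PD-L1 (19-238) and 3 nM Fc-tagged human PD-1 (25-167) in PBS pH 7.4 containing Tween-20, BSA and 1% DMSO. After 60 min with europium anti-human IgG and anti-His-APC, 665/620 nm signal ratio gave IC50 via percent-control fit.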

T1 sequence (Q9NZQ7 19-238): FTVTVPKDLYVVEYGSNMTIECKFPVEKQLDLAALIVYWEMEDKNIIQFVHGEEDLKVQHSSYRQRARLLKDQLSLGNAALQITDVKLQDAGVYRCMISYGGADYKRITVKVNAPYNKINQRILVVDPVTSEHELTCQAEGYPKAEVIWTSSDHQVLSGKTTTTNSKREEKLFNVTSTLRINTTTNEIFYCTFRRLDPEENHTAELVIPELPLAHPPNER

SMILES | pIC50
Cc1c(-c2cccc(N(C)C(=O)c3cc4c(s3)CNCC4)c2C)cccc1N(C)C(=O)c1cn2c(n1)CNCC2 [Example 5, N-(2,2′-dimethyl-3′-(N-methyl-5,6,7,8-tetrahydroimidazo[1,2-a]pyrazine-2-carboxamido)-[1,1′-biphenyl]-3-yl)-N-methyl-4,5,6,7-tetrahydrothieno[2,3-c]pyridine-2-carboxamide] | 6.70 to 7.00
O=C(Nc1cccc(-c2cccc3c2CCN3C(=O)c2nc3c(s2)CNCC3)c1Cl)c1ncc(CNCCO)s1 [Example 101, N-(2-chloro-3-(1-(4,5,6,7-tetrahydrothiazolo[5,4-c]pyridine-2-carbonyl)indolin-4-yl)phenyl)-5-(((2-hydroxyethyl)amino)methyl)thiazole-2-carboxamide] | > 7.60
NC(=O)CN1C2CCC1c1sc(C(=O)N3CCc4c(-c5cccc6c5CCN6C(=O)c5nc6c(s5)C5CCC(C6)N5CC(=O)O)cccc43)nc1C2 (stereo not drawn) [Example 111, 2-(2-(1′-(9-(2-amino-2-oxoethyl)-5,6,7,8-tetrahydro-4H-5,8-epiminocyclohepta[d]thiazole-2-carbonyl)-[4,4′-biindoline]-1-carbonyl)-5,6,7,8-tetrahydro-4H-5,8-epiminocyclohepta[d]thiazol-9-yl)acetic acid] | > 7.60
Cc1c(Nc2nccc3cc(CN4CC(O)C4)cnc23)cccc1-c1cccc(Nc2nccc3cc(CN4CC(O)C4)cnc23)c1C [Example 150, 1,1′-((((2,2′-dimethyl-[1,1′-biphenyl]-3,3′-diyl)bis(azanediyl))bis(1,7-naphthyridine-8,3-diyl))bis(methylene))bis(azetidin-3-ol)] | > 7.60
COP(=O)(CN1CCc2nc(C(=O)N3CCc4c(-c5cccc6c5CCN6C(=O)c5nc6c(s5)CN(CP(=O)(OC)OC)CC6)cccc43)sc2C1)OC [Example 123, dimethyl ((2-(1′-(5-((dimethoxyphosphoryl)methyl)-4,5,6,7-tetrahydrothiazolo[5,4-c]pyridine-2-carbonyl)-[4,4′-biindoline]-1-carbonyl)-6,7-dihydrothiazolo[5,4-c]pyridin-5(4H)-yl)methyl)phosphonate] | > 7.60
COP(=O)(CCN1CCc2nc(C(=O)N3CCc4c(-c5cccc6c5CCN6C(=O)c5nc6c(s5)CN(CCP(=O)(OC)OC)CC6)cccc43)sc2C1)OC [Example 124, dimethyl (2-(2-(1′-(5-(2-(dimethoxyphosphoryl)ethyl)-4,5,6,7-tetrahydrothiazolo[5,4-c]pyridine-2-carbonyl)-[4,4′-biindoline]-1-carbonyl)-6,7-dihydrothiazolo[5,4-c]pyridin-5(4H)-yl)ethyl)phosphonate] | > 7.60
O=C(Nc1cccc(-c2cccc(NC(=O)c3nc4c(s3)CN(CCO)CC4)c2Cl)c1Cl)c1nc2c(s1)CN(CCO)CC2 [Example 91, N,N′-(2,2′-dichloro-[1,1′-biphenyl]-3,3′-diyl)bis(5-(2-hydroxyethyl)-4,5,6,7-tetrahydrothiazolo[5,4-c]pyridine-2-carboxamide)] | > 7.60
O=C(Nc1cccc(-c2cccc(NC(=O)c3ncc(CN[C@H](C(=O)O)C4CCOCC4)s3)c2Cl)c1Cl)c1ncc(CN[C@H](C(=O)O)C2CCOCC2)s1 [Example 71, (2S,2'S)-2,2′-((((((2,2′-dichloro-[1,1′-biphenyl]-3,3′-diyl)bis(azanediyl))bis(carbonyl))bis(thiazole-2,5-diyl))bis(methylene))bis(azanediyl))bis(2-(tetrahydro-2H-pyran-4-yl)acetic acid)] | > 7.60
CN(CCN1CCc2nc(C(=O)N3CCc4c(-c5cccc6c5CCN6C(=O)c5nc6c(s5)CN(CCN(C)S(C)(=O)=O)CC6)cccc43)sc2C1)S(C)(=O)=O [Example 118, N,N′-((([4,4′-biindoline]-1,1′-dicarbonyl)bis(6,7-dihydrothiazolo[5,4-c]pyridine-2,5(4H)-diyl))bis(ethane-2,1-diyl))bis(N-methylmethanesulfonamide)] | > 7.60
Cc1c(NC(=O)c2cn3c(n2)CNCC3)cccc1-c1cccc(NC(=O)c2cn3c(n2)CNCC3)c1C [Example 8, N,N′-(2,2′-dimethyl-[1,1′-biphenyl]-3,3′-diyl)bis(5,6,7,8-tetrahydroimidazo[1,2-a]pyrazine-2-carboxamide)] | > 7.60
Cc1nc(C(=O)Nc2cccc(-c3cccc(NC(=O)c4nc(C)c(CN5CCCC[C@H]5C(=O)O)s4)c3Cl)c2C)sc1CN1CCCC[C@H]1C(=O)O [Example 54, (2S,2'S)-1,1′-(2,2′-(2-chloro-2′-methylbiphenyl-3,3′-diyl)bis(azanediyl)bis(oxomethylene)bis(4-methylthiazole-5,2-diyl))bis(methylene)dipiperidine-2-carboxylic acid] | > 7.60
O=C(Nc1cccc(-c2cccc(NC(=O)c3nc4c(s3)CN(C3COC3)CC4)c2Cl)c1Cl)c1nc2c(s1)CN(C1COC1)CC2 [Example 92, N,N′-(2,2′-dichloro-[1,1′-biphenyl]-3,3′-diyl)bis(5-(oxetan-3-yl)-4,5,6,7-tetrahydrothiazolo[5,4-c]pyridine-2-carboxamide)] | > 7.60

The remaining lines, values ahead:

pIC50 | SMILES
6.70 to 7.00 | O=C(c1nc2n(n1)CCNC2)N1CCc2c(-c3cccc4c3CCN4C(=O)c3nc4n(n3)CCNC4)cccc21 [Example 136, [4,4′-biindoline]-1,1′-diylbis((5,6,7,8-tetrahydro-[1,2,4]triazolo[1,5-a]pyrazin-2-yl)methanone)]
> 7.60 | Cc1nc(C(=O)N2CCc3c(-c4cccc5c4CCN5C(=O)c4nc(C)c(CN5CCCC[C@H]5C(=O)O)s4)cccc32)sc1CN1CCCC[C@H]1C(=O)O [Example 56, (2S,2'S)-1,1′-(2,2′-(4,4′-biindoline-1,1′-diylbis(oxomethylene))bis(4-methylthiazole-5,2-diyl))bis(methylene)dipiperidine-2-carboxylic acid]
7.00 to 7.60 | COC(=O)NC1(CN2CCc3nc(C(=O)N4CCc5c(-c6cccc7c6CCN7C(=O)c6nc7c(s6)CN(CC6(NC(=O)OC)CC6)CC7)cccc54)sc3C2)CC1 [Example 132, dimethyl (((([4,4′-biindoline]-1,1′-dicarbonyl)bis(6,7-dihydrothiazolo[5,4-c]pyridine-2,5(4H)-diyl))bis(methylene))bis(cyclopropane-1,1-diyl))dicarbamate]
> 7.60 | Cc1c(Nc2nccc3cc(CNCCO)cnc23)cccc1-c1cccc2c1CCN2C(=O)C1=NC2CCN(CCC(=O)O)CC2S1 (stereo not drawn) [Example 162, 3-(2-(4-(3-((3-(((2-hydroxyethyl)amino)methyl)-1,7-naphthyridin-8-yl)amino)-2-methylphenyl)indoline-1-carbonyl)-3a,6,7,7a-tetrahydrothiazolo[5,4-c]pyridin-5(4H)-yl)propanoic acid]
> 7.60 | COC(=O)NCCN1CCc2nc(C(=O)N3CCc4c(-c5cccc6c5CCN6C(=O)c5nc6c(s5)CN(CCNC(=O)OC)CC6)cccc43)sc2C1 [Example 130, dimethyl ((([4,4′-biindoline]-1,1′-dicarbonyl)bis(6,7-dihydrothiazolo[5,4-c]pyridine-2,5(4H)-diyl))bis(ethane-2,1-diyl))dicarbamate]
> 7.60 | Cc1c(NC(=O)c2nc3c(s2)CN(C(C)C(=O)O)CC3)cccc1-c1cccc(NC(=O)c2nc3c(s2)CN(C(C)C(=O)O)CC3)c1C (stereo not drawn) [Example 79, 2,2′-((((2,2′-dimethyl-[1,1′-biphenyl]-3,3′-diyl)bis(azanediyl))bis(carbonyl))bis(6,7-dihydrothiazolo[5,4-c]pyridine-2,5(4H)-diyl))dipropionic acid]
